Columns and labels:
participants [1] = test: Systolic blood pressure, crossover vs caffeine; format: in vivo, human
Description: (§1) All supplements were orally ingested with 8 fluid ounces of cold tap water.

dopamine = test: Dopamine level in young and old rats; format: in vivo; conditions: old rats
Experimental: (§2) Twenty-four young (6-8 Week) and twenty-four old (14-16 Months) Swiss Albino Wistar rats were housed in an animal room at a constant temperature (22±3° C.) and humidity (30%-70%) under a 12:12 h light-dark cycle with standard laboratory diet (Purina 5L79, Rat and Mouse 18% protein; PMI Nutrition International, Brentwood, MO, USA). Distilled water was provided ad libitum. All animal experiments were reviewed and approved by the Institutional Animal Ethical Committee (IAEC) of Radiant Research Services Pvt. Ltd (Bangalore, India). All research was conducted in accordance with the guidelines of the committee for the purpose of control and supervision of experiments on animals.
After one week of acclimation, the animals were randomly divided by body weight and age into six groups (n=8 per group in each test) for oral treatment once a day, at approximately same time each day (±1 hour), for 10 consecutive days: (1) vehicle control or (2) 1-methylxanthine or (3) 1-methylxanthine plus paraxanthine. The dose administered to the rat was calculated using US Food and Drug Administration for human equivalence doses (HED), assuming a human weight of 60 kg. […] Food intake was monitored daily while water intake was ad libitum. […] Body weight was recorded weekly. […]

healthy adult male = test: Subject report during work out; format: in vivo, human; conditions: 200 mg prior to work out
Experimental: Subject was a healthy adult. Subject was administered 200 mg of 1-methylxanthine prior to work out.
During another trial subject was administered 100 mg of 1-methylxanthine together with 100 mg of paraxanthine, prior to work out.

participants [2] = test: Diastolic blood pressure, crossover vs caffeine; format: in vivo, human
Experimental: All supplements were orally ingested with 8 fluid ounces of cold tap water. Resting Heart Rate, Systolic and Diastolic Blood Pressure was measured at baseline, 30, 60, 90, 120 and 180 minutes after ingestion.

[3] = Organ weight (liver, heart), Example 3; format: in vivo; conditions: mice, 28 days
Experimental: as §2, with “8-week-old male” for “young (6-8 Week) and twenty-four old (14-16 Months)”, “mice” for “Wistar rats”
After one week of acclimation, the animals were randomly divided by body weight into three groups (n=8 per group in each test) for oral treatment once a day, at approximately same time each day (±1 hour), for 28 consecutive days: (1) vehicle control or (2) 1-methylxanthine or (3) 1-methylxanthine plus paraxanthine. The dose administered to the mice was calculated using US Food and Drug Administration for human equivalence doses (HED), assuming a human weight of 60 kg. […] Food intake was monitored daily while water intake was ad libitum.

participants [4] = test: Resting heart rate, crossover vs caffeine; format: in vivo, human
Description: as §1

[5] = Person one, time 0, 200 mg oral
[6] = Person two, time 0, 200 mg oral

SMILES: Cn1c(=O)[nH]c2nc[nH]c2c1=O [1-methylxanthine, 1-Methyl-3H-purine-2,6-dione]
- systolic blood pressure change from baseline (participants [1]; 200 mg oral): did not increase
- systolic blood pressure reduced in comparison to CA (participants [1]; 200 mg oral): 6.1%
- Systolic Blood Pressure MEAN (30-180) (participants [1]; Average): 117.2 mm Hg
- Systolic Blood Pressure MEAN (30-180) (participants [1]; Person one): 123.6 mm Hg
- Systolic Blood Pressure Mean Δ from 0 (participants [1]; Person one): −1.6 mm Hg
- Systolic Blood Pressure Δ vs. CA (participants [1]; Person one): −6.4 mm Hg
- Systolic Blood Pressure (participants [1]; Person one, 30 min): 116 mm Hg
- Systolic Blood Pressure (participants [1]; Person one, 60 min): 136 mm Hg
- Systolic Blood Pressure (participants [1]; Person one, 90 min): 108 mm Hg
- Systolic Blood Pressure (participants [1]; Person one, 120 min): 116 mm Hg
- Systolic Blood Pressure (participants [1]; Person one, 180 min): 142 mm Hg
- Systolic Blood Pressure (participants [1]; [5]): 125 mm Hg
- Systolic Blood Pressure MEAN (30-180) (participants [1]; Person two): 110.8 mm Hg
- Systolic Blood Pressure Mean Δ from 0 (participants [1]; Person two): −2.2 mm Hg
- Systolic Blood Pressure Δ vs. CA (participants [1]; Person two): −9.6 mm Hg
- Systolic Blood Pressure (participants [1]; Person two, 30 min): 125 mm Hg
- Systolic Blood Pressure (participants [1]; Person two, 60 min): 110 mm Hg
- Systolic Blood Pressure (participants [1]; Person two, 90 min): 113 mm Hg
- Systolic Blood Pressure (participants [1]; Person two, 120 min): 114 mm Hg
- Systolic Blood Pressure (participants [1]; Person two, 180 min): 92 mm Hg
- Systolic Blood Pressure (participants [1]; [6]): 113 mm Hg
- dopamine level (dopamine): 474.42 ± 13.49 ng/L
- subject-reported effect during work out (healthy adult male): increased focus, concentration, mood and performance
- diastolic blood pressure reduced in comparison to CA (participants [2]; 200 mg oral): 12%
- Diastolic Blood Pressure MEAN (30-180) (participants [2]; Average): 70.6 mm Hg
- Diastolic Blood Pressure Mean Δ from 0 (participants [2]; Average): −1.4 mm Hg
- Diastolic Blood Pressure MEAN (30-180) (participants [2]; Person one): 71.6 mm Hg
- Diastolic Blood Pressure Mean Δ from 0 (participants [2]; Person one): −0.4 mm Hg
- Diastolic Blood Pressure Δ vs. CA (participants [2]; Person one): −5.0 mm Hg
- Diastolic Blood Pressure (participants [2]; Person one, 30 min): 71 mm Hg
- Diastolic Blood Pressure (participants [2]; Person one, 60 min): 68 mm Hg
- Diastolic Blood Pressure (participants [2]; Person one, 90 min): 69 mm Hg
- Diastolic Blood Pressure (participants [2]; Person one, 120 min): 71 mm Hg
- Diastolic Blood Pressure (participants [2]; Person one, 180 min): 79 mm Hg
- Diastolic Blood Pressure (participants [2]; [5]): 72 mm Hg
- Diastolic Blood Pressure MEAN (30-180) (participants [2]; Person two): 69.6 mm Hg
- Diastolic Blood Pressure Mean Δ from 0 (participants [2]; Person two): −2.4 mm Hg
- Diastolic Blood Pressure Δ vs. CA (participants [2]; Person two): −12.2 mm Hg
- Diastolic Blood Pressure (participants [2]; Person two, 30 min): 79 mm Hg
- Diastolic Blood Pressure (participants [2]; Person two, 60 min): 62 mm Hg
- Diastolic Blood Pressure (participants [2]; Person two, 90 min): 70 mm Hg
- Diastolic Blood Pressure (participants [2]; Person two, 120 min): 72 mm Hg
- Diastolic Blood Pressure (participants [2]; Person two, 180 min): 65 mm Hg
- Diastolic Blood Pressure (participants [2]; [6]): 72 mm Hg
- Heart weight [3]: 188.50 ± 3.12 mg
- Liver weight [3]: 1850.88 ± 39.96 mg
- heart rate change from baseline (participants [4]; 200 mg oral): did not increase
- heart rate reduced in comparison to CA (participants [4]; 200 mg oral): 3%
- Resting Heart Rate MEAN (30-180) (participants [4]; Average): 57.9 bpm
- Resting Heart Rate Mean Δ from 0 (participants [4]; Average): −9.6 bpm
- Resting Heart Rate MEAN (30-180) (participants [4]; Person one): 53.2 bpm
- Resting Heart Rate Mean Δ from 0 (participants [4]; Person one): −11.8 bpm
- Resting Heart Rate Δ vs. CA (participants [4]; Person one): −2.0 bpm
- Resting Heart Rate (participants [4]; Person one, 30 min): 63 bpm
- Resting Heart Rate (participants [4]; Person one, 60 min): 54 bpm
- Resting Heart Rate (participants [4]; Person one, 90 min): 49 bpm
- Resting Heart Rate (participants [4]; Person one, 120 min): 45 bpm
- Resting Heart Rate (participants [4]; Person one, 180 min): 55 bpm
- Resting Heart Rate (participants [4]; [5]): 65 bpm
- Resting Heart Rate MEAN (30-180) (participants [4]; Person two): 62.6 bpm
- Resting Heart Rate Mean Δ from 0 (participants [4]; Person two): −2.4 bpm
- Resting Heart Rate Δ vs. CA (participants [4]; Person two): −1.0 bpm
- Resting Heart Rate (participants [4]; Person two, 30 min): 61 bpm
- Resting Heart Rate (participants [4]; Person two, 60 min): 60 bpm
- Resting Heart Rate (participants [4]; Person two, 90 min): 65 bpm
- Resting Heart Rate (participants [4]; Person two, 120 min): 60 bpm
- Resting Heart Rate (participants [4]; Person two, 180 min): 62 bpm
- Resting Heart Rate (participants [4]; [6]): 65 bpm
